ChEMBL document CHEMBL3400093, “Synthesis and biological evaluation of novel tyrosyl-DNA phosphodiesterase 1 inhibitors with a benzopentathiepine moiety” (Bioorg Med Chem, 2015)
Calls of active or inactive are those of the source. No cut-off for these calls is given here.

Columns and labels:
[1] = system: MCF7; assay: Induction of apoptosis in human MCF7 cells assessed as P2 population at 200 uM after 48 hrs by annexin V-FITC/propidium iodide staining-based FACS flow cytometric analysis (reference value: 13.5%); assay type: functional
[2] = system: MCF7; assay: Cytotoxicity against human MCF7 cells assessed as condensation of nuclei, shrinkage of the cytoplasm, convolution of outlines, budding and formation of apoptotic bodies at 40 uM after 24 hrs by light microscopy; assay type: functional, cell-based
[3] = system: MCF7; assay: Induction of apoptosis in human MCF7 cells assessed as P2 population at 100 uM after 48 hrs by annexin V-FITC/propidium iodide staining-based FACS flow cytometric analysis (reference value: 13.5%); assay type: functional
[4] = system: HepG2; assay: Cytotoxicity against human HepG2 cells assessed as condensation of nuclei, shrinkage of the cytoplasm, convolution of outlines, budding and formation of apoptotic bodies at 200 uM after 24 hrs by light microscopy; assay type: functional, cell-based
[5] = system: MCF7; assay: Cytotoxicity against human MCF7 cells assessed as condensation of nuclei, shrinkage of the cytoplasm, convolution of outlines, budding and formation of apoptotic bodies at 200 uM after 24 hrs by light microscopy; assay type: functional, cell-based
[6] = system: MCF7; assay: Cytotoxicity against human MCF7 cells assessed as reduction In cell number after 72 hrs by MTT assay; assay type: functional; settings: MCF7, 72 h
[7] = system: HepG2; assay: Cytotoxicity against human HepG2 cells assessed as condensation of nuclei, shrinkage of the cytoplasm, convolution of outlines, budding and formation of apoptotic bodies at 40 uM after 24 hrs by light microscopy; assay type: functional, cell-based
[8] = system: MCF7; assay: Induction of apoptosis in human MCF7 cells assessed as P1 population at 100 uM after 24 hrs by annexin V-FITC/propidium iodide staining-based FACS flow cytometric analysis relative to control; assay type: functional
[9] = system: MCF7; assay: Induction of apoptosis in human MCF7 cells assessed as P1 population at 200 uM after 24 hrs by annexin V-FITC/propidium iodide staining-based FACS flow cytometric analysis relative to control; assay type: functional
[10] = system: MCF7; assay: Induction of apoptosis in human MCF7 cells assessed as apoptotic DNA fragments at 100 uM after 72 hrs by DNA gel electrophoresis assay; assay type: functional, cell-based
[11] = system: MCF7; assay: Induction of apoptosis in human MCF7 cells assessed as P1 population at 200 uM after 48 hrs by annexin V-FITC/propidium iodide staining-based FACS flow cytometric analysis relative to control; assay type: functional
[12] = target: Tyrosyl-DNA phosphodiesterase 1 (Homo sapiens, UniProt Q9NUW8); assay: Inhibition of recombinant TDP1 (unknown origin) assessed as increase in fluorescence
[13] = system: MCF7; assay: Induction of apoptosis in human MCF7 cells assessed as P1 population at 100 uM after 48 hrs by annexin V-FITC/propidium iodide staining-based FACS flow cytometric analysis relative to control; assay type: functional
[14] = system: HepG2; assay: Cytotoxicity against human HepG2 cells assessed as reduction In cell number after 72 hrs by MTT assay; assay type: functional; settings: HepG2, 72 h

Tyrosyl-DNA phosphodiesterase 1, sequence (Q9NUW8 whole entry): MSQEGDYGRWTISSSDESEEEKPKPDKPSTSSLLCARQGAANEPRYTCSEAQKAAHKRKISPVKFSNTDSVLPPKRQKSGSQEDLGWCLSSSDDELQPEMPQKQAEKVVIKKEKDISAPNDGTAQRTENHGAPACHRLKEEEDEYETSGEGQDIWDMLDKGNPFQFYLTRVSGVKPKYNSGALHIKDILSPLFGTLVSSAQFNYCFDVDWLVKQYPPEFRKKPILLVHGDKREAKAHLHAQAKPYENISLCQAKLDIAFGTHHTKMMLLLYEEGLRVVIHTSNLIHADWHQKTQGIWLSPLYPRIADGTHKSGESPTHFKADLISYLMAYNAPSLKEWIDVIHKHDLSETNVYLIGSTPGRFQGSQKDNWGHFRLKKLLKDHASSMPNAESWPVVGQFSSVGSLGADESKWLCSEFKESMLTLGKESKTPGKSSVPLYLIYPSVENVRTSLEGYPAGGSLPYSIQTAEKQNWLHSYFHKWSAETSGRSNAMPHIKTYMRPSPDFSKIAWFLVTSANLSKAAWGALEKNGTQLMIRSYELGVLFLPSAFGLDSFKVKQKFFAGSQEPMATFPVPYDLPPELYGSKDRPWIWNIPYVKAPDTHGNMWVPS

Structure (SMILES) | CC50 [6] | Activity [9] | Activity [10] | Activity [11] | IC50 [12] | also measured
O=C(Nc1cc(C(F)(F)F)cc2c1SSSSS2)C(F)(F)F | 21 µM | 8.3% | Active | 20.1% | > 10 µM | Activity [1]: 33.6%; inhibition [2]: Active; Activity [3]: 23%; inhibition [4]: Active; inhibition [5]: Active; inhibition [7]: Active; Activity [8]: 1.2%; Activity [13]: 9.5%
O=C(CN1CCOCC1)Nc1cc(C(F)(F)F)cc2c1SSSSS2 | – | – | – | – | 1.62 µM | –
Nc1cc(C(F)(F)F)cc2c1SSSSS2 | 14 µM | 0% | Active | 0.8% | > 10 µM | Activity [8]: 0%; CC50 [14]: 26.6 µM
O=C(CN1CCCC1)Nc1cc(C(F)(F)F)cc2c1SSSSS2 | – | – | – | – | 3.7 µM | –
O=C(CCN1CCCCC1)Nc1cc(C(F)(F)F)cc2c1SSSSS2 | – | – | – | – | 3.66 µM | –
O=C(CCN1CCCC1)Nc1cc(C(F)(F)F)cc2c1SSSSS2 | – | – | – | – | 6.03 µM | –
O=C(CCN1CCOCC1)Nc1cc(C(F)(F)F)cc2c1SSSSS2 | – | – | – | – | 1.3 µM | –
CCCCN(CCCC)CC(=O)Nc1cc(C(F)(F)F)cc2c1SSSSS2 | 28.1 µM | 1.51% | Active | 10.5% | 0.22 µM | CC50 [14]: > 100 µM
O=C(CN1CCCCC1)Nc1cc(C(F)(F)F)cc2c1SSSSS2 | 19.3 µM | 0% | Active | 0.9% | 1.28 µM | Activity [8]: 0%; CC50 [14]: 24.4 µM
O=C(CN1CCCC1)Nc1ccccc1 | – | – | – | – | > 10 µM | –
O=C(CN1CCCCC1)Nc1ccccc1 | – | – | – | – | > 10 µM | –
